Key:
chymotrypsin = assay: Proteolysis assay with chymotrypsin; assay type: in vitro ADME; conditions: chymotrypsin solution, 500 µL of 500 µM peptide in phosphate buffer pH 7.4 + 10 µL chymotrypsin 100 µg/mL, 37 °C, HPLC integration relative to starting peptide, read-out: peptide degraded under chymotrypsin for 1.5 h
Method: IX. Proteolysis assays.
500 µL of peptide TR-12 (500 µM, 2 µL DMSO was added to help solubilization) in phosphate buffer (pH 7.4) was mixed and incubated with 10 µL of the protease solution (Chymotrypsin – 100 µg/mL) at 37 ℃. At 0, 10, 20 , 40, 60, 90 minutes, aliquots of 50 µL were quenched with 50 µL of 1% TFA solution in MeCN respectively and subjected to HPLC analysis. Peptide concentrations at different time points were quantified by integration of the HPLC trace relative to the starting […]
500 µL of peptide 5o (500 µM, 2 µL DMSO was added to help solubilization) in phosphate buffer (pH 7.4) was mixed and incubated with
Table S2. Proteolytic assays of peptide TR-12 and 5o with chymotrypsin.
Time/Peak area 0 min 10 min 20 min 40 min 60 min 90 min

[1] = tested on: human bladder cancer cells; assay type: cell-based; conditions: 48 h
Method: XI. Biological Experiments
Cell Counting Kit (CCK-8) was used to evaluate the proliferation inhibition activity of the compounds, and the half inhibitory concentration IC50 value was determined by single-concentration primary screening and multi-concentration.
Fetal Bovine Serum (FBS) 04-001-1acs, Biological industries; PBS phosphate buffer (PB180327), penicillin-streptomycin sulfate double resistant mixture (100× ) […]
Leibovitz's L-15 medium (PM151010), Wuhan Punosai Life Technology Co., LTD.
CCK-8 Kit, Biosharp life sciences; Trypsin-edta Digestive Solution (05200-056), GIBCO; Cellular DMSO (D2650 -100ML), SIGMA; 96-well cell culture plate, Corning Life Sciences (Wujiang) Co., LTD. 25, 75cm2 cell culture bottle, Corning Life Sciences (Wujiang) Co., LTD. Blood cell counting plate, Shanghai Qiujing Biochemical Reagent Instrument Co., LTD. Cisplatin (D8810), Solarbio life sciences;
Instruments and equipment
Super clean workbench (sw-cj-2fd), Sujing Aetna; Microscope (nib -100), Ningbo Yongxin Optical Co., Ltd; Carbon dioxide cell incubator (MCO -18AC), Phcbi; Electric constant temperature water bath pot (HWS -24), Shanghai Yiheng Technology Co., Ltd; Multifunctional microplate reader (Multiskan MK3), Thermo; One ten-thousandth balance (MS105DU), METTLER; Centrifuge (TD4N), ChangshaYingtai Instrument Co., Ltd; Mixer (SCI-VS), Selo Czech Republic, USA.
The samples were dissolved in the cell -grade DMSO after accurately weighing to generate the 10 mM drug solution. The drug solution was further diluted to tenfold detection concentration by cell culture medium.
Standard Operation Procedure
Detection principle of cytotoxicity (CCK -8 method):
The detection principle is that the CCK-8 reagent contains WST-8, which is reduced S52 to a highly water-soluble yellow methyl product (formazan) by dehydrogenase in the cell mitochondria under the action of electron carrier 1-methoxy-5-methylphenazine dimethyl sulfate (1-methoxy PMS). The number of the nail products produced is directly proportional to the number of living cells.
(1) Inoculate cells: The cells were prepared into single cell suspension with the culture medium containing 10% fetal bovine serum, and the 96 well plates were inoculated with 90 uL cell culture medium (Adherent cell viewed 5×10^4/mL and Suspension cell viewed 9×10^4/mL) per well, then cultured at 5% CO2 and 37 ℃ for 24 hours.
(2) Add the sample solution to be tested: Add 10 µL sample solution to each well. One concentration was set for each sample during preliminary screening and three multiple holes were set for each concentration. Eight concentration gradients were set for each sample for IC50 determination and three multiple holes were set for each concentration.
The 96 well plates were cultured at 5% CO2 and 37 ℃ for 48 hours. The experiment was divided into a blank group, control group and drug group.
(3) Color development: The old culture medium and drug solution of adherent cells were sucked out, then 100 µL of CCK-8 solution (diluted ten times with the basic medium) was added and the suspension cells were directly added 10 µL of CCK-8 stock solution. Culture at 37 ℃ with 5% CO2 for 1-4 h (dark operation, real-time observation).
(4) Result detection: The absorbance was measured at 450 nm with an enzyme labeling instrument and the original data and results were recorded.
(5) The toxicity is expressed by cell inhibition, and the calculation formula is as follows:
Cell inhibition (%) = (ODControl-ODDrug) / (ODControl-ODBlank)×100%. The IC50 was calculated by the software graphpad prism 8 (version 8.0.2, from GraphPad SoftwareInc)，and the experimental results are expressed in ± SD.
6) Positive control: Cisplatin.

[2] = Circular dichroism measurement of α-helicity; assay type: physicochemical; conditions: 40% TFE/H2O, 0.05 mM peptide, room temperature, path length 1 mm, 180-260 nm, average of at least 3 values
Method: VIII. Circular Dichroism Measurements.[22]
General Procedure for the measurement of CD spectra were mensurated at a wavelength ranging from 180 to 260 nm, with a path length of 1mm and a scanning speed of 200 nm/min at room temperature on the J-1500 (Jasco, Japan) spectropolarimeter. The lyophilized solid linear and staple peptides were dissolved in deionized water (bubbled with nitrogen for 30 minutes) to afford a 1 mM solution. The 1 mM stock solution was diluted with six different solvent systems (H2O, 5%, 10%, 20%, 30%, 40% TFE/H2O) to afford 0.05 mM solutions. The data described is the average of at least 3 values. The mean peptide ellipticity [θ] was calculated using equation (1) and plotted against […]
θ: ellipticity [mdeg], C: peptide molar concentration [M], Np: number of peptide units, l: cell path length [cm].[6]
Figure S20: The CD spectroscopy of 5y was measured in six different solvent systems Through the above data, we obviously saw that the stapled peptide 5y had the best helicity (34.7%) in 40% solution of TFE/H2O, and then we conducted CD test on the active peptide QN-16 before and after stapling.

[3] = Serum stability study in Foetal Bovine Serum; conditions: 300 µL of 1 mg/mL peptide in deionized water + 300 µL Foetal Bovine Serum, 37 °C, CH3CN precipitation, RP-HPLC peak area of intact peptide
Method: The peptide of interest (300 µ L of 1 mg/mL stock solution in deionized water) was added to 300 µ L of
Foetal Bovine Serum and incubated at 37° C in an incubator. At each time point, an aliquot of 50 µ L was
drawn and an equal volume of ice-chilled CH3CN was added to the aliquot to precipitate serum proteins.
The cloudy mixture was centrifuged at 12,000 rpm for 10 min and then supernatant was removed. The
level of degradation was determined by the integration of the area under the RP-HPLC peak
corresponding to the intact peptide.
Before testing the serum stability, the standard curve (the relationship between concentration and peak
area) was established by RP-HPLC for CP-9 and TR-12 and QN-16 and 5h and 5o and 5w.
shift their retention times later.

Compound	metabolised at 1.5 h, 490 µM (chymotrypsin) [%]	IC50 [1] [µM]	Helicity (α-helicity by CD) [2] [%]	time for complete degradation in bovine serum [3] [h]
CC(=O)N[C@H](C(=O)N[C@@H](CO)C(=O)N[C@@H](Cc1ccccc1)C(=O)N[C@H]1CCCCNC(=O)CCCC/C(=C\Cl)SSC[C@@H](C(=O)N[C@@H](CC(C)C)C(=O)N[C@@H](CC(C)C)C(=O)N[C@@H](CO)C(=O)N[C@@H](CCCNC(=N)N)C(N)=O)NC(=O)[C@H](Cc2c[nH]c3ccccc23)NC(=O)[C@H](Cc2ccc(O)cc2)NC(=O)[C@H](CCC(N)=O)NC1=O)[C@@H](C)O [Peptide 5o]	43	8.55	–	–
CC(=O)N[C@H](C(=O)N[C@@H](CO)C(=O)N[C@@H](Cc1ccccc1)C(=O)N[C@@H](CCCCN)C(=O)N[C@@H](CCC(N)=O)C(=O)N[C@@H](Cc1ccc(O)cc1)C(=O)N[C@@H](Cc1c[nH]c2ccccc12)C(=O)N[C@@H](CS)C(=O)N[C@@H](CC(C)C)C(=O)N[C@@H](CC(C)C)C(=O)N[C@@H](CO)C(=O)N[C@@H](CCCNC(=N)N)C(N)=O)[C@@H](C)O [TR-12]	90	16.2	44.7	≤ 2
CC(=O)N[C@H](C(=O)N[C@@H](CO)C(=O)N[C@@H](Cc1ccccc1)C(=O)N[C@H]1CCCCNC(=O)COC/C(Cl)=C\SSC[C@@H](C(=O)N[C@@H](CC(C)C)C(=O)N[C@@H](CC(C)C)C(=O)N[C@@H](CO)C(=O)N[C@@H](CCCNC(=N)N)C(N)=O)NC(=O)[C@H](Cc2c[nH]c3ccccc23)NC(=O)[C@H](Cc2ccc(O)cc2)NC(=O)[C@H](CCC(N)=O)NC1=O)[C@@H](C)O [Peptide 5m]	–	21.7	–	–
CC(=O)N[C@H](C(=O)N[C@@H](CO)C(=O)N[C@@H](Cc1ccccc1)C(=O)N[C@H]1CCCCNC(=O)c2ccccc2OCC/C(Cl)=C\SSC[C@@H](C(=O)N[C@@H](CC(C)C)C(=O)N[C@@H](CC(C)C)C(=O)N[C@@H](CO)C(=O)N[C@@H](CCCNC(=N)N)C(N)=O)NC(=O)[C@H](Cc2c[nH]c3ccccc23)NC(=O)[C@H](Cc2ccc(O)cc2)NC(=O)[C@H](CCC(N)=O)NC1=O)[C@@H](C)O [Peptide 5p]	–	14.9	–	–
CC(=O)N[C@H](C(=O)N[C@@H](CO)C(=O)N[C@@H](Cc1ccccc1)C(=O)N[C@H]1CCCCNC(=O)CC/C(=C\Cl)SSC[C@@H](C(=O)N[C@@H](CC(C)C)C(=O)N[C@@H](CC(C)C)C(=O)N[C@@H](CO)C(=O)N[C@@H](CCCNC(=N)N)C(N)=O)NC(=O)[C@H](Cc2c[nH]c3ccccc23)NC(=O)[C@H](Cc2ccc(O)cc2)NC(=O)[C@H](CCC(N)=O)NC1=O)[C@@H](C)O [Peptide 5k]	–	14.6	–	–
CC(=O)N[C@H](C(=O)N[C@@H](CO)C(=O)N[C@@H](Cc1ccccc1)C(=O)N[C@H]1CCCCNC(=O)CCC/C(=C\Cl)SSC[C@@H](C(=O)N[C@@H](CC(C)C)C(=O)N[C@@H](CC(C)C)C(=O)N[C@@H](CO)C(=O)N[C@@H](CCCNC(=N)N)C(N)=O)NC(=O)[C@H](Cc2c[nH]c3ccccc23)NC(=O)[C@H](Cc2ccc(O)cc2)NC(=O)[C@H](CCC(N)=O)NC1=O)[C@@H](C)O [Peptide 5l]	–	14.7	81.4	–
Ac-QSQQTFCNLWRLLKQN-NH2 [QN-16]	–	–	30.3	–
Ac-CPIMEDRKP-NH2 [CP-9]	–	–	–	≤ 5
Ac-QSQQTFCNLWRLLKQN-NH2 (also: sidechain bridge or staple (positions not given here)) [Peptide 5y, QN-16 stapled with reagent 3m]	–	–	34.7	–
Ac-QSQQTFCNLWRLLKQN-NH2 (also: sidechain bridge or staple (positions not given here)) [Peptide 5v, QN-16 stapled with reagent 3d]	–	–	60.8	–

From paper PMC12596731, “Cys–Lys stapling for unprotected peptides via tunable linkers” (National Science Review, 2025)
